{"source": "patent US7550587B2", "about": "“Photosensitizer and method for production thereof” (priority 2001, dated 2009)", "details": "mouse, in vivo", "description": "The mice were slaughtered 3 hours after injection (each group consisted of 3 mice). The materials of liver, kidney, spleen, lungs, small intestines, tumor, surrounding muscle tissue as well as from blood, urine, faeces from large intestine weighing 100 mg each were thoroughly homogenised in glass homogenizers supplementing 4 ml of saline solution. For examination of biological fluids (blood, urine) 0,1 ml of each fluid were taken with subsequent dissolution in 4 ml of saline solution. The resulting homogenates were studied on “Perkin-Elmer” spectrofluorimeter (MPF-44A model).", "data": [{"substance": "13-carboxy-17-[2-carboxyethyl]-15-formyl-17,18-trans-dihydro-3-vinyl-8-ethyl-2,7,12,18-tetramethylporphyrin [purpurin 5]", "values": [{"measurement": "time interval of tumour accumulation optimal for photodynamic effect according to selectivity", "result": "3 to 18", "unit": "h"}]}]}
